The assay addresses T1, chimeric α7-5HT3 ion channel (UniProt P23979+P36544, M226I/T225I).
T1 construct: pore forming region of the mouse 5HT3 receptor (fusion partner, same polypeptide); expressed in transfected cells
Nature of the assay: Cell-based FLIPR assay measuring the EC50 of α7 nAChR agonists on the chimeric α7-5HT3 receptor. Also noted: species or system human/mouse. Particulars: SH-EP1 cells expressing chimeric α7-5HT3 ion channel; increase in intracellular calcium (Calcium Green fluorescence, FLIPR). The text has this:
Cell-based Assay for Measuring the EC50 of α7 nAChR Agonists
Construction and Expression of the α7-5HT3 Receptor:
The cDNA encoding the N-terminal 201 amino acids from the human α7 nAChR that contain the ligand binding domain of the ion channel was fused to the cDNA encoding the pore forming region of the mouse 5HT3 receptor as described by Eisele J L, et al., Chimaeric nicotinic-serotonergic receptor combines distinct ligand binding and channel specificities, Nature (1993), December 2;366(6454):479-83, and modified by Groppi, et al., WO 00/73431. The chimeric α7-5HT3 ion channel was inserted into pGS175 and pGS179 which contain the resistance genes for G-418 and hygromycin B, respectively. […]
To assay the activity of the α7-5HT3 ion channel, cells expressing the channel were plated into each well of either a 96 or 384 well dish (Corning #3614) and grown to confluence prior to assay. […] The activity of compounds on the chimeric α7-5HT3 ion channel was analyzed on FLIPR. […] Fluorescent emission was measured above 525 nanometers with an appropriate F-stop to maintain a maximal signal to noise ratio. Agonist activity of each compound was measured by directly adding the compound to cells expressing the chimeric α7-5HT3 ion channel and measuring the resulting increase in intracellular calcium that is caused by the agonist-induced activation of the chimeric ion channel. […]

T1 sequence (P36544+P23979 fused P36544:T225I/P36544:M226I): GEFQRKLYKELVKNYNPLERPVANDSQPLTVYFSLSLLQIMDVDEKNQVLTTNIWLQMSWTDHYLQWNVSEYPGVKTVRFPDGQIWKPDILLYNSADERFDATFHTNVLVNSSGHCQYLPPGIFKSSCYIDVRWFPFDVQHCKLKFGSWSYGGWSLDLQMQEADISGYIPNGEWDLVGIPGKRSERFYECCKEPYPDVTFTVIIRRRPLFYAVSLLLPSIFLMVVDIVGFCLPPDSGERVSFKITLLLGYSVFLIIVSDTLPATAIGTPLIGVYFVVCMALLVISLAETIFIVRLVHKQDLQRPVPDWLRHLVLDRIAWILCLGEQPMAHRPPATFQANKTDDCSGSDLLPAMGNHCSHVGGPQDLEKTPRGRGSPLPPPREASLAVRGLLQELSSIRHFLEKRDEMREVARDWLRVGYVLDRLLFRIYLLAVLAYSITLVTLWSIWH

`Cl.O=C(N[C@H]1CN2CCC1CC2)c1ccc2c(c1)O[C@H](COc1ccccc1)CO2` [Example 12, (3R)-N-[(3R)-1-Azabicyclo[2.2.2]oct-3-yl]-3-(phenoxymethyl)-2,3-dihydro-1,4-benzodioxine-6-carboxamide Hydrochloride]: the “Agonist activity (result in words)” value is “inactive”.
With `O=C(N[C@H]1CN2CCC1CC2)c1ccc2c(c1)OCC(COCc1ccccc1)O2.O=C(O)/C=C/C(=O)O` (single isomer, unassigned) [Example 6(b)] the entry was “inactive”.

The values are drawn from US6951868B2, “Azabicyclic-phenyl-fused-heterocyclic compounds for treatment of disease” (Pfizer Inc., priority 2001, dated 2005).
